# Legend:
# [1] = Quantitative analysis of gelsenicine in medulla; assay type: in vivo, C57BL/6J mice; settings: 1 mg/kg intraperitoneal
# [2] = test system: gelsenicine (1)-poisoned mice; assay: Antidote screening: survival of gelsenicine-poisoned mice; assay type: in vivo, Kunming mice; settings: gelsenicine 0.22 mg/kg i.p.
# mice = assay: Respiratory function by whole-body plethysmography; assay type: in vivo, C57BL/6J mice; settings: 0.22 mg/kg intraperitoneal
# [3] = assay type: in vivo, human; settings: victim serum, UPLC-Q Exactive MS/MS
# CA1 pyramidal neurons = assay: Whole-cell recording in hippocampal CA1 pyramidal neurons; assay type: cell-based, C57BL/6J mice
# VRG neurons = assay: Whole-cell recording of spontaneous action potentials in VRG neurons; assay type: cell-based, C57BL/6J mice
# [4] = Detection of toxic alkaloids in mouse plasma after oral G. elegans extract; assay type: in vivo, Kunming mice; settings: mice, oral G. elegans 95% ethanolic extract 200 mg/kg, blood 5 min after gavage
# [5] = Acute toxicity of pure Gelsemium alkaloids in mice; settings: both, Kunming, mouse, in vivo, ip, 30 mg/kg
# [6] = cited from earlier work
compound,measurement,setting,value
"CCC1=N[C@H]2C[C@@]3(C(=O)N(OC)c4ccccc43)[C@H]3C[C@@H]1[C@@H]2CO3 [Compound 1, gelsenicine]",Distribution to medulla,"[1]; C57BL/6 mice, 5 and 10 min","quickly distributed to medulla at 5 min, and sustained until 10 min"
same,Time of death,[1]; mice,around 10 min
same,Time of death after administration,"[2]; mice, no antidote",around 15 min
same,Time to severe respiratory distress after injection,mice,5 to 10 min
same,"Peak expiratory flow, peak inspiratory flow, frequency, tidal volume and minute ventilation",mice; vs saline,significant reduction
same,Detection in the clinical blood sample,[3],clearly detected
same,Concentration at which action potentials were suppressed,CA1 pyramidal neurons; CA1 pyramidal neurons,≥ 5 µmol/L
same,Effect on action potential firing,"CA1 pyramidal neurons; CA1 pyramidal neurons, 1 and 2 μmol/L",failed to show an inhibitory effect
same,Effect on miniature inhibitory synaptic currents (mIPSCs),"CA1 pyramidal neurons; hippocampus CA1 region, 5 μmol/L",increased the amplitude
same,Decrease of action potential firing rate,"VRG neurons; VRG neurons, 1 μmol/L",about 60%
same,Decrease of action potential firing rate,"VRG neurons; VRG neurons, 2 μmol/L",about 70%
same,Effect on action potential firing,"VRG neurons; VRG neurons, 0.3 and 0.6 μmol/L",did not have an inhibitory effect
same,Effect on firing rate of picrotoxin-treated VRG neurons,VRG neurons; gelsenicine 1 μmol/L in the presence of picrotoxin 50 μmol/L,did not affect the firing rate
same,Detection in plasma,[4],detected in the plasma
same,LD50 at 7 days,[5],0.14 mg/kg
"C/C=C1\CN(C)[C@H]2C[C@@]3(C(=O)N(OC)c4ccccc43)[C@H]3C[C@@H]1[C@@H]2CO3 [Compound 17, humantenine]",Detection in the clinical blood sample,[3],clearly detected
same,Detection in plasma,[4],detected in the plasma
same,LD50 at 7 days,[5],7.11 mg/kg
"C=C[C@]12CN(C)[C@@H]3[C@H]4CO[C@H](C[C@H]41)[C@]1(C(=O)Nc4ccccc41)[C@@H]32 [Compound 24, gelsemine]",Detection in the clinical blood sample,[3],could also be detected
"C=C[C@@]12CN(C)[C@H]3C[C@]14C(=Nc1ccccc14)[C@@H]1C[C@@H]2[C@@H]3CO1 [Compound 32, koumine]",Detection in the clinical blood sample,[3],could also be detected
same,LD50 at 7 days,[5],> 30 mg/kg
CCC1(C)CC(=O)NC(=O)C1 [bemegride],Survival rate of poisoned mice,[2]; antidote 6.5 mg/kg i.p.,30%
same,Time to peak concentration and passage into the brain,[6],≤ 30 min
"CN1CCc2cc3c(cc2[C@H]1[C@@H]1OC(=O)c2c1ccc1c2OCO1)OCO3 [bicuculline, reference compound]",Effect on firing of VRG neurons inhibited by gelsenicine,VRG neurons; bicuculline 20 μmol/L after gelsenicine 1 μmol/L,restoring the normal firing rate
CCOC(=O)c1ncn2c1CN(C)C(=O)c1cc(F)ccc1-2 [flumazenil],Survival rate of poisoned mice,[2]; antidote 3 mg/kg i.p.,50%
same,Time to peak level,"[6]; oral or intravenous, clinical and animal studies",≤ 5 min
O=C1C=C2C=C[C@@H]3C[C@@]2(O1)[C@H]1CCCCN31 [securinine],Survival rate of poisoned mice,[2]; antidote 3 mg/kg i.p.,50%
same,Time to peak concentration in plasma,[6]; intraperitoneal injection,≤ 9 min
same,Time to peak concentration in the brain,[6]; intraperitoneal injection,≤ 30 min
picrotoxin [reference compound],Effect on VRG neuron activity (firing rate vs baseline),VRG neurons; picrotoxin 50 μmol/L alone,robust increase in activity

# Source: paper PMC12491680 (Acta Pharmaceutica Sinica. B, 2025)
